Measured values from US7449447B2, “Peptidomimetic NS3-serine protease inhibitors of hepatitis C virus” (priority 2003, dated 2008).

target: T1, HCV NS3/NS4a serine protease (Hepatitis C virus genotype 1b, UniProt P26663); assay: Spectrophotometric assay for HCV protease inhibitory activity (chromogenic ester substrates); type: biochemical, hepatitis C virus (strain 1b); details: Ki Rating, Table 2; single chain NS4A21-32-GSGS-NS3 3-181 protease, 30° C., pH 6.5
T1 construct: amino terminus of the NS3 protease domain (amino acids 3-181) with a tetrapeptide linker; made in house; host or cells: E. coli
Experimental: Spectrophotometric Assay: Spectrophotometric assays for the HCV serine protease were performed on the inventive compounds by following the procedure described by R. Zhang et al., Analytical Biochemistry, 270 (1999) 268-275, the disclosure of which is incorporated herein by reference. The assay based on the proteolysis of chromogenic ester substrates is suitable for the continuous monitoring of HCV NS3 protease activity.
HCV NS3 protease (strain 1b) and its NS4A cofactor were constructed as a recombinant single chain protein. The NS4A cofactor domain (amino acid residues 21-32) was fused in frame to the amino terminus of the NS3 protease domain (amino acids 3-181) with a tetrapeptide linker. This NS4A 21-32-GSGS-NS33-181 construct was then expressed in E. coli and purified to >90% homogeneity. Kinetic parameters were determined and found to be the same as that of the full length NS31-631/NS4A1-54 protein complex produced in the baculovirus system (D. L. Sali et al, Biochemistry, 37 (1998) 3392-340). The details of the cloning, expression, purification and kinetic analysis of the of the single chain recombinant protease have been previously described (S. S. Taremi, et al. Protein Science. 7 (1998) 2143-2149.
Protein concentrations were determined by the Biorad dye method using recombinant HCV protease standards previously quantified by amino acid analysis. Prior to assay initiation, the enzyme storage buffer (50 mM sodium phosphate pH 8.0, 300 mM NaCl, 10% glycerol, 0.05% lauryl maltoside and 10 mM DTT) was exchanged for the assay buffer (25 mM MOPS pH 6.5, 300 mM NaCl, 10% glycerol, 0.05% lauryl maltoside, 5 μM EDTA and 5 μM DTT) utilizing a Biorad Bio-Spin P-6 prepacked column.
Protease Assay: HCV protease assays were performed at 30° C. using a 200 μl reaction mix in a 96-well microtiter plate. Assay buffer conditions (25 mM MOPS pH 6.5, 300 mM NaCl, 10% glycerol, 0.05% lauryl maltoside, 5 μM EDTA and 5 μM DTT) were optimized for the NS3/NS4A heterodimer (D. L. Sali et al, ibid.)). Typically, 100 μl mixtures of buffer, substrate and inhibitor were placed in wells and allowed to preincubate at 30° C. for approximately 3 minutes. One hundred μls of pre-warmed protease (30° C.) in assay buffer, was then used to initiate the reaction to produce a final concentration of 1.3 nM HCV). The Substrate cleavage by the protease was monitored over 60 minutes by measuring the release of the phenylazophenol (PAP) product at an absorbance of 370 nm with a continuous read every 30 seconds using a SpectraMax Plus microtiter plate reader (Molecular Devices, Sunnyvale, Calif.). Background hydrolysis of the substrate was subtracted. Inhibitors were tested over a range of concentrations (final DMSO concentration 4%)
Evaluation of Inhibitors The inhibition constants (Ki) for the competitive inhibitors were determined experimentally at fixed concentrations of enzyme and substrate by plotting vo/vi vs. inhibitor concentration ([I]o) according to the rearranged Michaelis-Menten equation for competitive inhibition kinetics: vo/vi=1+[I]o/(Ki(1+[S]o/Km)), where vo is the uninhibited initial velocity, vi is the initial velocity in the presence of inhibitor at any given inhibitor concentration ([I]o) and [S]o is the substrate concentration used. The resulting data were fitted using linear regression and the resulting slope, 1/(Ki(1+[S]o/Km), was used to calculate the Ki value.

T1 sequence (P26663 1013-1207, looked up, natural form): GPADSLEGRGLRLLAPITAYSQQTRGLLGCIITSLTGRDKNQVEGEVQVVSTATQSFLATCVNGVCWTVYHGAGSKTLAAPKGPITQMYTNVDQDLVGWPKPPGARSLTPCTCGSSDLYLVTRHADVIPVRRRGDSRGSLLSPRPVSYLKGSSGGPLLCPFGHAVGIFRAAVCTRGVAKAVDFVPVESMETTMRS

| SMILES | Ki |
| --- | --- |
| CC(C)[C@H](NC(=O)N[C@H](C(=O)N1C[C@H]2[C@@H]([C@H]1C(=O)N[C@@H](CC(F)F)C(=O)O)C2(C)C)C(C)(C)C)C(=O)OC(C)(C)C [Example 153] | > 500 nM |
| CC(C)(C)OC(=O)N[C@H](C(=O)N1C[C@H]2[C@@H]([C@H]1C(=O)NC(CC(F)F)C(=O)O)C2(C)C)C(C)(C)C (stereo partly drawn) [Example 167] | > 500 nM |
| CC1(C)C[C@H]2[C@H](CN(C(=O)[C@@H](NC(=O)OCc3ccccc3)C3CCCCC3)[C@@H]2C(=O)N[C@@H](CC(F)F)C(=O)NCCc2ccccc2)O1 [Example 158] | > 500 nM |
| COC(=O)c1ccc(CCNC(=O)[C@H](CC(F)F)NC(=O)[C@@H]2[C@H]3CC(C)(C)O[C@H]3CN2C(=O)[C@@H](NC(=O)N[C@H](C(=O)OC(C)(C)C)C(C)C)C2CCCCC2)cc1 [Example 154] | > 500 nM |

same assay, conditions: Ki, Table 1; single chain NS4A21-32-GSGS-NS3 3-181 protease, 30° C., pH 6.5

| SMILES | Ki |
| --- | --- |
| COC(=O)c1ccc(CCNC(=O)[C@H](CC(F)F)NC(=O)[C@@H]2[C@@H]3[C@H](CN2C(=O)[C@@H](NC(=O)N[C@H](CN(C)S(C)(=O)=O)C(C)(C)C)C(C)(C)C)C3(C)C)c(Cl)c1 [Example 105] | 24 nM |
| COC(=O)c1ccc(CCNC(=O)[C@H](CC(F)F)NC(=O)[C@@H]2[C@@H]3[C@H](CN2C(=O)[C@@H](NC(=O)NC2(CS(C)(=O)=O)CCCCC2)C(C)(C)C)C3(C)C)cc1 [Example 110] | 40 nM |
| CC(C)[C@@H](CNS(=O)(=O)c1ccccc1)NC(=O)N[C@H](C(=O)N1C[C@H]2[C@@H]([C@H]1C(=O)N[C@@H](CC(F)F)C(=O)NCCc1ccc(C(=O)O)cc1)C2(C)C)C(C)(C)C [Example 115] | 90 nM |

same assay, conditions: Ki, Table 3; rating; single chain NS4A21-32-GSGS-NS3 3-181 protease, 30° C., pH 6.5

| SMILES | Ki |
| --- | --- |
| CCOc1cc(CCNC(=O)[C@H](CC(F)F)NC(=O)[C@@H]2[C@@H]3[C@H](CN2C(=O)[C@@H](NC(=O)N[C@H](CN(C)S(C)(=O)=O)C(C)(C)C)C(C)(C)C)C3(C)C)ccc1OC [Example 286] | < 100 nM |
| CCN(CC)CCNC(=O)[C@H](CC(F)F)NC(=O)[C@@H]1[C@@H]2[C@H](CN1C(=O)[C@@H](NC(=O)N[C@H](CN(C)S(C)(=O)=O)C(C)(C)C)C(C)(C)C)C2(C)C [Example 234] | > 500 nM |
| CN(C[C@@H](NC(=O)N[C@H](C(=O)N1C[C@H]2[C@@H]([C@H]1C(=O)N[C@@H](CC(F)F)C(=O)NCCc1cccc(F)c1)C2(C)C)C(C)(C)C)C(C)(C)C)S(C)(=O)=O [Example 264] | < 100 nM |
| Cc1ccccc1CCNC(=O)[C@H](CC(F)F)NC(=O)[C@@H]1[C@@H]2[C@H](CN1C(=O)[C@@H](NC(=O)N[C@H](CN(C)S(C)(=O)=O)C(C)(C)C)C(C)(C)C)C2(C)C [Example 259] | < 100 nM |
| CN(C[C@@H](NC(=O)N[C@H](C(=O)N1C[C@H]2[C@@H]([C@H]1C(=O)N[C@@H](CC(F)F)C(=O)NCCc1ccccc1Cl)C2(C)C)C(C)(C)C)C(C)(C)C)S(C)(=O)=O [Example 251] | < 100 nM |
| CN(C[C@@H](NC(=O)N[C@H](C(=O)N1C[C@H]2[C@@H]([C@H]1C(=O)N[C@@H](CC(F)F)C(=O)NCCc1ccc(Cl)cc1Cl)C2(C)C)C(C)(C)C)C(C)(C)C)S(C)(=O)=O [Example 283] | < 100 nM |
| CN(C[C@@H](NC(=O)N[C@H](C(=O)N1C[C@H]2[C@@H]([C@H]1C(=O)N[C@@H](CC(F)F)C(=O)NCCC#N)C2(C)C)C(C)(C)C)C(C)(C)C)S(C)(=O)=O [Example 204] | > 500 nM |
| CN(CCc1ccccn1)C(=O)[C@H](CC(F)F)NC(=O)[C@@H]1[C@@H]2[C@H](CN1C(=O)[C@@H](NC(=O)N[C@H](CN(C)S(C)(=O)=O)C(C)(C)C)C(C)(C)C)C2(C)C [Example 305] | > 500 nM |
| CN(C[C@@H](NC(=O)N[C@H](C(=O)N1C[C@H]2[C@@H]([C@H]1C(=O)N[C@@H](CC(F)F)C(=O)NCCN1CCOCC1)C2(C)C)C(C)(C)C)C(C)(C)C)S(C)(=O)=O [Example 240] | > 500 nM |
| CN(C[C@@H](NC(=O)N[C@H](C(=O)N1C[C@H]2[C@@H]([C@H]1C(=O)N[C@@H](CC(F)F)C(=O)NCCS(=O)(=O)C(C)(C)C)C2(C)C)C(C)(C)C)C(C)(C)C)S(C)(=O)=O [Example 253] | > 500 nM |
| CN(C[C@@H](NC(=O)N[C@H](C(=O)N1C[C@H]2[C@@H]([C@H]1C(=O)N[C@@H](CC(F)F)C(=O)NCCc1ccc(O)c(O)c1)C2(C)C)C(C)(C)C)C(C)(C)C)S(C)(=O)=O [Example 298] | < 100 nM |
